Laboratory results from US20080090805A1, “CB-1 MODULATING COMPOUNDS AND THEIR USE” (ACADIA PHARMACEUTICALS INC., priority 2005, published 2008).

Experiments:
C57 BK/6 mice = assay: Novel object recognition study; format: in vivo; conditions: test 1 or 2 hours after dosing, CP 55,940 0.3 mg/kg ip, SR141716A 1 mg/kg ip, Compound II 3 mg/kg ip, FIGS. 10, 11
Method: Subjects: Subjects were male, C57 BK/6 mice purchased from Harlan Laboratories, weighing 15-20 g upon arrival. Animals were housed 8 per cage with food and water available ad libidum. Animals were housed on a 12 hr light cycle (lights on 6 am) for 4-7 days prior to behavioral testing.
Equipment: Novel object recognition (NOR) was conducted in a novel environment consisting of a white plastic tub measuring 45.7×33.7×19 cm. Prior to each trial the bottom of the tub was covered with a piece of plastic lined bench top paper. There were two sets of identical objects chosen so that when given a opportunity to explore, mice would evenly divide exploration time between the objects. “A” objects were yellow, ceramic, 12-sided ramekins measuring 4 cm high×7 cm diameter. “B” objects were 8×8×4 cm stainless steel, 4-sided ramekins.
Procedure: At the beginning of each test day, animals were placed in groups of 6 into clean cages. Testing was conducted in three phases: acclimation, sample and test. […] Each mouse was allowed to explore the chamber and the objects for 3 min., and the time spent exploring at each position was recorded. Directly sniffing or touching the object was recorded as exploration. […] The test sessions were recorded on video and scored by an observer blind to each subject's treatment condition. Any time spent directly sniffing or touching an object was counted as exploration. […]

NSA mice [1] = assay: Hypothermia study (block of CP 55,940-induced hypothermia); format: in vivo; conditions: pretreatment 30 min prior to CP55,940, dose-dependent, FIG. 6
Method: . […] Core body temperatures were then obtained at various time points following CP 55,940 administration. Core body temperature (to the nearest 0.1° C.) was obtained by rectal probe.

NSA mice [2] = assay: Tail flick study (block of CP 55,940 antinociception); conditions: test compound ip 30 min prior to CP55,940, FIGS. 5A, 5B
[3] = test system: fasted Sprague-Dawley rats; assay: Acute feeding study; format: in vivo; conditions: 1, 3, 10 mg/kg, dose-dependent, FIGS. 2-4
Method: Male, Sprague-Dawley rats (90-120 g) served as subjects for these studies. Rats were fasted for a period of 16 hrs (water was always available). After the fasting period, test compounds were administered either intraperitoneally (ip) or orally (po). Immediately following compound administration, the rats were returned to their home cage. Following 30 min after compound administration, the rats were removed from their home cages and placed individually into clean cages with a pre-measured amount of food. Food weights were obtained (to the nearest 0.1 g) at various time points. Food consumption was monitored for a period of up to 2 hrs (i.e., 2.5 hr after test compound administration).

obese Zucker rats = assay: Chronic feeding study; format: in vivo; conditions: 1, 3, 10 mg/kg/day, dose-dependent, FIGS. 9A-9D
Method: Male, obese Zucker rats (400-500 g) served as subjects for these studies. Rats were housed individually and had access to food and water ad libitum. Rats were allowed to acclimate to the vivarium for a period of 3 days, during which body weight and consumption of food and water was monitored. […] Daily food and water intakes were also monitored. Food and water bottles were weighed at the time body weights were recorded (i.e., 1350 hr). Vehicle or compound was administered daily for a period of up to 15 days.

[4] = test system: rats with unilateral 6-OH dopamine lesions; assay: Rotation study (unilateral 6-hydroxy-dopamine lesion); format: in vivo; conditions: 6-OH dopamine lesioned rats; apomorphine 0.05, 0.16, 0.5 mg/kg ip; Compound II 3 mg/kg; FIGS. 14-16
[5] = microsomes
in vitro [6] = conditions: mouse, microsomes, pH 7.4
in vitro [7] = conditions: rat, microsomes, pH 7.4

CCCCCCC(C)(C)c1ccc([C@@H]2C[C@H](O)CC[C@H]2CCCO)c(O)c1 [CP 55,940, reference compound]
preference for the novel object (exploration ratio, discrimination index) (C57 BK/6 mice): showed a preference for the novel object after 1 hour of being dosed with the test compound but then returned back to baseline exploration rates after 2 hours

O=C(NN1CCCCC1)c1ccc2c(c1)N=C(C1CCCCC1)c1ccccc1S2 [Compound I, 11-Cyclohexyl-dibenzo[b,f][1,4]thiazepine-8-carboxylic acid piperidin-1-ylamide]
effect on CP 55,940-induced hypothermia (core body temperature) (NSA mice [1]): attenuates CP 55,940-induced hypothermia
effect on antinociceptive actions of CP55,940 (tail flick latency) (NSA mice [2]): attenuates the antinociceptive actions of CP55,940
cumulative food intake [3]: suppresses the cumulative food intake in fasted rats

CCCCNC(=O)c1ccc2c(c1)N=C(c1ccc(Cl)cc1)c1ccccc1S2 [Compound II, N-(butyl)-11-(4-chlorophenyl)-dibenzo[b,f,][1,4]thiazepine-8-carboxamide]
food and water intake (obese Zucker rats): attenuated the food and water intake of the rats
preference for the novel object (exploration ratio, discrimination index) (C57 BK/6 mice): showed a preference for the novel object
contralateral rotations [4]: augments dopaminergic functions

CN1CCc2cccc3c2[C@H]1Cc1ccc(O)c(O)c1-3 [apomorphine, reference compound]
contralateral rotations [4]: dose-dependently elicits contralateral rotations

CCCCNC(=O)c1ccc2c(c1)N=C(c1ccc(Cl)cc1)c1ccc(Cl)cc1S2 [drawing 1732]
Clearance Human [5]: 0
microsomal CLint at 1 μM (in vitro [6]): 29 µL/min/mg
microsomal CLint at 1 μM (in vitro [7]): 24 µL/min/mg
